Assay results: the supplement of paper PMC7224384

Key:
MDA-MB-453 [1] = experiment: drug sensitivity score (DSS), single agent (DSS (weighted AUC score)); higher = more sensitive (stronger viability decrease); extreme values may be limits of the assay; conditions: BLU9931 0 nM; 72 h
Method in brief: (§1)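 Drug sensitivity scores come from a weighted area under a four-parameter logistic fit to percent viability, normalised per plate to control wells. Viability was based on cellular ATP read with CellTiterGlo 2.0 after 72 h at 37 °C, 5% CO2. Each 384-well plate carried FIMM Oncology set compounds in singlicate at five 10-fold dilutions, with 2000 MDA-MB-453 cells per well in medium with or without an FGFR4 inhibitor at 100 nM final.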

MDA-MB-453 [2] = experiment: drug sensitivity score (DSS), in combination with BLU9931 (DSS (weighted AUC score)); higher = more sensitive (stronger viability decrease); extreme values may be limits of the assay; conditions: BLU9931 100 nM; 72 h
Method in brief: as §1

Cc1ccc(C(=O)Nc2cccc(C(F)(F)F)c2)cc1Nc1nc(-c2cccnc2)nc2c1cnn2C [NVP-BHG712]
drug sensitivity score (MDA-MB-453 [1]): 1.9
drug sensitivity score (MDA-MB-453 [2]): 1.2

C1=N/C2=N/c3ccc(OCCN4CCCC4)c(c3)COC/C=C/COCc3cccc(c3)C(=C1)N2 [Pacritinib]
drug sensitivity score (MDA-MB-453 [1]): 8.3
drug sensitivity score (MDA-MB-453 [2]): 10

CC1(C)CNc2cc(NC(=O)c3cccnc3NCc3ccncc3)ccc21 [Motesanib]
drug sensitivity score (MDA-MB-453 [1]): 1
drug sensitivity score (MDA-MB-453 [2]): 0.3

CC(O)c1cc(C(=O)N[C@@H](C)Cn2ccc(-c3ccc(C#N)c(Cl)c3)n2)n[nH]1 (stereo partly specified) [ODM-201]
drug sensitivity score (MDA-MB-453 [1]): 1.1
drug sensitivity score (MDA-MB-453 [2]): 0.3

Nc1nc2cc(-c3ccc4ncc(C(=O)N5CCOCC5)n4c3)ccc2o1 [Serabelisib]
drug sensitivity score (MDA-MB-453 [1]): 7.8
drug sensitivity score (MDA-MB-453 [2]): 9.8

CC1(C)CCC(CN2CCN(c3ccc(C(=O)NS(=O)(=O)c4ccc(NCC5CCOCC5)c([N+](=O)[O-])c4)c(Oc4cnc5[nH]ccc5c4)c3)CC2)=C(c2ccc(Cl)cc2)C1 [Venetoclax]
drug sensitivity score (MDA-MB-453 [1]): 0
drug sensitivity score (MDA-MB-453 [2]): 0

CN(C)Cc1c(C(=O)NCCOc2ccc(C(=O)NO)cc2)oc2ccccc12 [Abexinostat]
drug sensitivity score (MDA-MB-453 [1]): 22.6
drug sensitivity score (MDA-MB-453 [2]): 22.3

COc1cc(OC)cc(N(CCNC(C)C)c2ccc3ncc(-c4cnn(C)c4)nc3c2)c1 [Erdafitinib]
drug sensitivity score (MDA-MB-453 [1]): 4.3
drug sensitivity score (MDA-MB-453 [2]): 0.2

CN1CCN(c2cc(C(=O)Nc3ccc4c(c3)-c3c(c(C(N)=O)nn3-c3ccc(F)cc3)CC4)c(Cl)cn2)CC1 [PHA 408]
drug sensitivity score (MDA-MB-453 [1]): 4.9
drug sensitivity score (MDA-MB-453 [2]): 3.4

CC(C)C[C@H](NC(=O)[C@H](Cc1ccccc1)NC(=O)c1cnccn1)B(O)O [Bortezomib]
drug sensitivity score (MDA-MB-453 [1]): 21.3
drug sensitivity score (MDA-MB-453 [2]): 20.1

CNC(=O)c1ccc(N2C(=S)N(c3cnc(C#N)c(C(F)(F)F)c3)C(=O)C23CCC3)cc1F [Apalutamide]
drug sensitivity score (MDA-MB-453 [1]): 0
drug sensitivity score (MDA-MB-453 [2]): 0

Nc1nc(N)c2nc(-c3cccc(O)c3)c(-c3cccc(O)c3)nc2n1 [TG100-115]
drug sensitivity score (MDA-MB-453 [1]): 5.1
drug sensitivity score (MDA-MB-453 [2]): 5.9

O=S(=O)(c1cccc2c(O)nccc12)N1CCCNCC1 [Hydroxyfasudil]
drug sensitivity score (MDA-MB-453 [1]): 0
drug sensitivity score (MDA-MB-453 [2]): 0.2

C[C@@H](Nc1cc(F)cc(F)c1)c1cc(C(=O)N(C)C)cc2c(=O)cc(N3CCOCC3)oc12 [AZD-8186]
drug sensitivity score (MDA-MB-453 [1]): 1.7
drug sensitivity score (MDA-MB-453 [2]): 2.3

CC(C)(C)c1cc(NC(=O)Nc2ccc(-c3cn4c(n3)sc3cc(OCCN5CCOCC5)ccc34)cc2)no1 [Quizartinib]
drug sensitivity score (MDA-MB-453 [1]): 1
drug sensitivity score (MDA-MB-453 [2]): 0.4

N#Cc1ccc(C(c2ccc(C#N)cc2)n2cncn2)cc1 [Letrozole]
drug sensitivity score (MDA-MB-453 [1]): 0
drug sensitivity score (MDA-MB-453 [2]): 0

CC(C)C[C@H](NC(=O)[C@@H](COC(C)(C)C)NC(=O)[C@H](Cc1ccc(O)cc1)NC(=O)[C@H](CO)NC(=O)[C@H](Cc1c[nH]c2ccccc12)NC(=O)[C@H](Cc1cnc[nH]1)NC(=O)[C@@H]1CCC(=O)N1)C(=O)N[C@@H](CCCNC(=N)N)C(=O)N1CCC[C@H]1C(=O)NNC(N)=O [Goserelin]
drug sensitivity score (MDA-MB-453 [1]): 0
drug sensitivity score (MDA-MB-453 [2]): 0

NC[C@@](O)(c1ccc(Cl)cc1)c1ccc(-c2cn[nH]c2)cc1
drug sensitivity score (MDA-MB-453 [1]): 1.3
drug sensitivity score (MDA-MB-453 [2]): 2.4

COc1cc2c(cc1OCCCN1CCCC1)N=C(N)C21CCC1 [A-366]
drug sensitivity score (MDA-MB-453 [1]): 0
drug sensitivity score (MDA-MB-453 [2]): 0

C=C1C[C@@H]2[C@H](CC[C@]3(C)C(=O)CC[C@@H]23)[C@@]2(C)C=CC(=O)C=C12 [Exemestane]
drug sensitivity score (MDA-MB-453 [1]): 4.8
drug sensitivity score (MDA-MB-453 [2]): 0

CC(C)c1cc(C(=O)N2Cc3ccc(CN4CCN(C)CC4)cc3C2)c(O)cc1O [Onalespib]
drug sensitivity score (MDA-MB-453 [1]): 17
drug sensitivity score (MDA-MB-453 [2]): 16.4

COC(=O)C[C@](O)(CCCC(C)(C)O)C(=O)O[C@@H]1C(OC)=C[C@]23CCCN2CCc2cc4c(cc2[C@H]13)OCO4 [Omacetaxine]
drug sensitivity score (MDA-MB-453 [1]): 22.1
drug sensitivity score (MDA-MB-453 [2]): 20.5

CN1CCN(c2ccc3nc(-c4c(N)c5c(F)cccc5[nH]c4=O)[nH]c3c2)CC1 [Dovitinib]
drug sensitivity score (MDA-MB-453 [1]): 0
drug sensitivity score (MDA-MB-453 [2]): 0

Cn1nccc1Nc1nccc(-c2ccn([C@H](CO)c3ccc(Cl)c(F)c3)c(=O)c2)n1 [Ravoxertinib]
drug sensitivity score (MDA-MB-453 [1]): 6.9
drug sensitivity score (MDA-MB-453 [2]): 5.6

C[C@H]1C[C@@H](n2c(Nc3ccc(OC(F)(F)F)cc3)nc3cc(CCC(=O)O)ccc32)CC(C)(C)C1
drug sensitivity score (MDA-MB-453 [1]): 0
drug sensitivity score (MDA-MB-453 [2]): 0

C[C@@H]1COC(Nc2ccc3ncnc(Nc4ccc(OCc5nccs5)c(Cl)c4)c3c2)=N1 [Varlitinib]
drug sensitivity score (MDA-MB-453 [1]): 6.3
drug sensitivity score (MDA-MB-453 [2]): 9.1

Nc1nc(Nc2ccc3c(c2)CC[C@@H](N2CCCC2)CC3)nn1-c1cc2c(nn1)-c1ccccc1CCC2 [BGB324]
drug sensitivity score (MDA-MB-453 [1]): 3.2
drug sensitivity score (MDA-MB-453 [2]): 0.2

CCCC(CCC)C(=O)O [Valproic acid]
drug sensitivity score (MDA-MB-453 [1]): 1.6
drug sensitivity score (MDA-MB-453 [2]): 0.9

CO[C@H]1C[C@@H]2CC[C@@H](C)[C@@](O)(O2)C(=O)C(=O)N2CCCC[C@H]2C(=O)O[C@H]([C@H](C)C[C@@H]2CC[C@@H](O)[C@H](OC)C2)CC(=O)[C@H](C)/C=C(\C)[C@@H](O)[C@@H](OC)C(=O)[C@H](C)C[C@H](C)/C=C/C=C/C=C/1C [Sirolimus]
drug sensitivity score (MDA-MB-453 [1]): 5.1
drug sensitivity score (MDA-MB-453 [2]): 10.5

CC(C)(O)CNc1nc(Nc2ccnc(C(F)(F)F)c2)nc(-c2cccc(C(F)(F)F)n2)n1 [Enasidenib]
drug sensitivity score (MDA-MB-453 [1]): 0
drug sensitivity score (MDA-MB-453 [2]): 0.1

CCOc1ccn(-c2ccc(F)cc2)c(=O)c1C(=O)Nc1ccc(Oc2ccnc(N)c2Cl)c(F)c1
drug sensitivity score (MDA-MB-453 [1]): 0
drug sensitivity score (MDA-MB-453 [2]): 0

N#Cc1ccnc(N2C(=O)CC[C@H]2C(=O)N(c2cncc(F)c2)[C@H](C(=O)NC2CC(F)(F)C2)c2ccccc2Cl)c1 [Ivosidenib]
drug sensitivity score (MDA-MB-453 [1]): 0
drug sensitivity score (MDA-MB-453 [2]): 0

C=CC(=O)Nc1cc2c(Nc3ccc(F)c(Cl)c3)ncnc2cc1OCCCN1CCOCC1 [Canertinib]
drug sensitivity score (MDA-MB-453 [1]): 15.5
drug sensitivity score (MDA-MB-453 [2]): 17.8

CC[C@]1(O)C[C@@H]2CN(CCc3c([nH]c4ccccc34)[C@@](C(=O)OC)(c3cc4c(cc3OC)N(C)[C@H]3[C@@](O)(C(=O)OC)[C@H](OC(C)=O)[C@]5(CC)C=CCN6CC[C@]43[C@@H]65)C2)C1 [Vinblastine]
drug sensitivity score (MDA-MB-453 [1]): 10
drug sensitivity score (MDA-MB-453 [2]): 8.4

O=C(/C=C/c1cccc(S(=O)(=O)Nc2ccccc2)c1)NO [Belinostat]
drug sensitivity score (MDA-MB-453 [1]): 21.3
drug sensitivity score (MDA-MB-453 [2]): 20.2

CC1=C(/C=C/C(C)=C/C=C/C(C)=C/C(=O)O)C(C)(C)CCC1 [Tretinoin]
drug sensitivity score (MDA-MB-453 [1]): 0
drug sensitivity score (MDA-MB-453 [2]): 0

Nc1ccn([C@@H]2O[C@H](CO)[C@@H](O)C2(F)F)c(=O)n1 [Gemcitabine]
drug sensitivity score (MDA-MB-453 [1]): 6.9
drug sensitivity score (MDA-MB-453 [2]): 6

CC[C@@H](C(=O)[C@@H](C)[C@@H](O)[C@H](C)[C@@H]1O[C@@H]([C@@H](CC)C(=O)O)CC[C@@H]1C)[C@H]1O[C@]2(C=C[C@@H](O)[C@]3(CC[C@@](C)([C@H]4CC[C@](O)(CC)[C@H](C)O4)O3)O2)[C@H](C)C[C@@H]1C [Salinomycin]
drug sensitivity score (MDA-MB-453 [1]): 6.8
drug sensitivity score (MDA-MB-453 [2]): 3.2

COC(=O)c1ccc2c(c1)[nH]c1ncnc(NCCCN3CCCCC3)c12 [UM729]
drug sensitivity score (MDA-MB-453 [1]): 2
drug sensitivity score (MDA-MB-453 [2]): 1.3

Cc1cc(-c2nc(-c3ccc(OC(F)(F)F)cc3)no2)nn1Cc1ccnc(N2CCN(C3CC3)CC2)c1 [BAY 87-2243]
drug sensitivity score (MDA-MB-453 [1]): 12.2
drug sensitivity score (MDA-MB-453 [2]): 10.4

C=CC(=O)N1CCC[C@@H](n2nc(-c3ccc(Oc4ccccc4)cc3)c3c(N)ncnc32)C1 [Ibrutinib]
drug sensitivity score (MDA-MB-453 [1]): 14.5
drug sensitivity score (MDA-MB-453 [2]): 15.8

CC(C)Oc1ccc(-c2nn([C@@H](C)c3oc4ccc(F)cc4c(=O)c3-c3cccc(F)c3)c3ncnc(N)c23)cc1F [TGR-1202]
drug sensitivity score (MDA-MB-453 [1]): 0.7
drug sensitivity score (MDA-MB-453 [2]): 0

CO[C@@H]1[C@H](N(C)C(=O)c2ccccc2)C[C@H]2O[C@]1(C)n1c3ccccc3c3c4c(c5c6ccccc6n2c5c31)C(=O)NC4 [Midostaurin]
drug sensitivity score (MDA-MB-453 [1]): 7.3
drug sensitivity score (MDA-MB-453 [2]): 4.8

CC(=O)c1cnc2ccc(-c3cc(Cl)c(O)c(Cl)c3)nc2c1N[C@H]1CC[C@H](CN(C)C)CC1 [OTS167]
drug sensitivity score (MDA-MB-453 [1]): 17.4
drug sensitivity score (MDA-MB-453 [2]): 15.9

O=C(/C=C\n1cnc(-c2cc(C(F)(F)F)cc(C(F)(F)F)c2)n1)NNc1cnccn1 [Selinexor]
drug sensitivity score (MDA-MB-453 [1]): 9.6
drug sensitivity score (MDA-MB-453 [2]): 9.5

Cc1cn(-c2cc(NC(=O)c3ccc(C)c(Nc4nccc(-c5cnccn5)n4)c3)cc(C(F)(F)F)c2)cn1 [Radotinib]
drug sensitivity score (MDA-MB-453 [1]): 0
drug sensitivity score (MDA-MB-453 [2]): 2.4

CCOC(=O)C1=CCCC[C@H]1S(=O)(=O)Nc1ccc(F)cc1Cl [Resatorvid]
drug sensitivity score (MDA-MB-453 [1]): 0
drug sensitivity score (MDA-MB-453 [2]): 0

Nc1cc(F)ccc1NC(=O)/C=C/c1cnn(C/C=C/c2ccccc2)c1 [RGFP966]
drug sensitivity score (MDA-MB-453 [1]): 2.6
drug sensitivity score (MDA-MB-453 [2]): 2.9

COc1ccc2[nH]cc(/C=C3\C(=O)Nc4ccc(NC(=O)CCN5CCCCC5)cc43)c2c1
drug sensitivity score (MDA-MB-453 [1]): 6.1
drug sensitivity score (MDA-MB-453 [2]): 4.8

C[C@@H]1CN(C(=O)c2ccc(NC(=O)c3cc(O[C@H](C)c4c(Cl)ccc(F)c4Cl)c(N)nn3)cc2)C[C@H](C)N1 [Ensartinib]
drug sensitivity score (MDA-MB-453 [1]): 0
drug sensitivity score (MDA-MB-453 [2]): 0

NC(=O)c1cccc2cn(-c3ccc([C@@H]4CCCNC4)cc3)nc12 [Niraparib]
drug sensitivity score (MDA-MB-453 [1]): 2.3
drug sensitivity score (MDA-MB-453 [2]): 1.3

N#CCNC(=O)c1ccc(-c2ccnc(Nc3ccc(N4CCOCC4)cc3)n2)cc1 [Momelotinib]
drug sensitivity score (MDA-MB-453 [1]): 4.7
drug sensitivity score (MDA-MB-453 [2]): 2.2

COC(=O)N[C@@H](C)CNc1nccc(-c2cn(C(C)C)nc2-c2cc(Cl)cc(NS(C)(=O)=O)c2F)n1 [Encorafenib]
drug sensitivity score (MDA-MB-453 [1]): 0.2
drug sensitivity score (MDA-MB-453 [2]): 0
